Measured values from patent US20070043034A1, “Chlorine Ion Uptake Modulators and Uses Thereof” (priority 2005, published 2007).

What was measured:
Na^+-K^+-ATPase = assay: Activity-dependent change of Cli after postsynaptic action potential trains in CA1 pyramidal neurons; assay type: cell-based, rat; conditions: in the presence of DHO 10 μM; 20 Hz, 2.5 min trains; P=0.27
Description: The GABAB receptor antagonist CGP 55845A (1 μM) was included in the bath for most experiments. Bumetanide was stored as a 50 mM stock solution in ethanol at 4° C. and then diluted to 10 μM in ACSF. Dihydroouabain (10 μM) was diluted into ACSF and bath applied.
Action potentials in current-clamped neurons was invoked by injecting depolarizing current pulses (1.5 ms, 2 nA) at 20 Hz for 2.5 min.
Persistent increases in Cli and the GABA reversal potential have been observed following trains of action potentials. Action potential trains have long been known to cause long-lasting increases in the activity of Na^+—K^+-ATPase and corresponding changes in RMP. If NKCCl-mediated transport were thermodynamically limited, then the changes in ECl observed following action potential trains could be due to altered Na^+ and K^+ transmembrane gradients. Without being bound by any theory, it is believed that of the two cations, Nai would be most labile and would have the most influence on the Cli at which NKCCl-mediated transport reached equilibrium. Steady-state ECl and Cl^− transport kinetics were measured before and after a 20 Hz, 2.5 minute train of action potentials. […]
FIGS. 10A-10D show activity-dependent increases in Cli. FIG. 10A is a graph showing that following a train of action potentials in the recorded cell (20 Hz, 2.5 min), Cli reached a new steady state. […]

[1] = test system: low-Mg^2+ induced recurrent seizures in the intact hippocampus; assay: Low-Mg2+ ACSF induced recurrent seizures in the intact hippocampus in vitro; assay type: cell-based, rat; conditions: phenobarbital 100 μM
Description: High expression level of the Na^+ K^+-2Cl^− (NKCCl) co-transporter in immature neurons causes the accumulation of chloride ions and a depolarized Cl^− equilibrium potential (ECl). This is linked to a higher seizure propensity and poor EEG response in neonates to the barbiturates and benzodiazepines, conventional anticonvulsant drugs that target Cl^−-permeable GABAA-receptor (GABAA-R) operated channels. […] Recurrent ictal-like seizures were induced by low-Mg^+ ACSF in intact hippocampal preparations in vitro. […] Bumetanide decreased both seizure frequency and seizure power.
FIGS. 11A-11C are graphs of low-Mg^2+πinduced recurrent seizures in the intact hippocampus in vitro. […] First and last seizures from 5 hour recording are shown on an expanded time scale. Right, corresponding power spectra in the 0.1-1000 Hz frequency band. […] Summary data are taken from ten hippocampi. […] Power of the first seizure in each recording was considered as 100%. Data are taken from 18 recordings in 10 preparations from P4-6 rats.
FIGS. 12A-12C are graphs showing low efficiency of phenobarbital in neonatal seizures. FIG. 12A is a graph showing extracellular field potential recording in the CA3 pyramidal cell layer in the intact hippocampus of a P5 rat. Continuous application of low-Mg^2+ ACSF induced recurrent tonic-clonic seizures. […] The right portion corresponds to power spectra in the 0.1-1000 Hz frequency range. […] Data are from ten experiments that were combined. FIG. 12C is a graph showing power of recurrent seizures before, during and after phenobarbital application. Power of the first seizure in each recording was considered as 100%. Seizures were not depressed by phenobarbital indicating its low efficiency.
FIGS. 13A-13C are graphs showing that alteration of Cl^−-transport by bumetanide enhanced efficacy of phenobarbital in neonatal seizures. FIG. 13A is a graph of extracellular field potential recording in the CA3 pyramidal cell layer in the intact hippocampus of a P5 rat. Application of low-Mg^2+ ACSF induced recurrent seizures. […] These are shown on an expanded time scale. The right portion of FIG. 13A is a power spectra of extracellular field potential activity before and during application of drugs. FIG. 13B is a graph showing inter-seizure intervals before, during and after application of drugs. In 75% of experiments seizures were abolished (ISI>120 min) by simultaneous application of phenobarbital and bumetanide. FIG. 13C is a graph showing power of recurrent seizures before, during and after simultaneous application of phenobarbital and bumetanide. Power of the first seizure in each recording was considered as 100%. Seizures were depressed by combination of drugs.
FIGS. 14A and 14B are graphs showing alteration of Cl^−-transport for early-life seizure therapy. […]

KA-induced rat seizures = assay: Kainic acid (KA) induced seizures in rat pups, EEG recording in vivo; conditions: KA 2 mg/kg s.c.
Description: Kainic Acid (KA) is a commonly used agent for creating an in vivo neonatal-like seizure model in rats for study. It is believed that this seizure model closely parallels human neonatal seizure disorders. KA, a glutamate receptor agonist, was used to induce neonatal-like seizures in postnatal (P) 7-12 day male Wistar rats. The rats were equipped with electrodes including recording and reference electrodes by standard means. There are many known methods for measuring parameters of seizures, in this example electrical signals were digitized using an analogue-to-digital converter for example a DigiData 1322A (Axon Instuments USA). The sampling interval can vary depending on the desired target interval. In this example, the sampling interval per signal was 200 […]s (5 kHz). For data analysis, several computer programs exist for capturing and analyzing these seizure parameters such as Clamp 9.2 (Axon Instruments, USA) and Origon 5.0 (Microcal Software, USA) used here. Interictal spikes were determined by typical means utilizing band-pass filtered raw data.
Many known methods exist for analyzing the power levels of different frequency components in a signal such as a signal recorded from a seizure episode. For example, power spectrum analysis can be performed after applying a Hamming window function. Unless otherwise indicated, power was calculated in 1-2 min time windows by integrating the root mean square value of the signal in frequency bands from 1 to 100 Hz (EEC band) and from 200 to 500 Hz (fast ripple band).
Pharmaceutical compositions of the present invention can be administered to seizure-induced rats to test the seizure modulatory properties of the pharmaceutical composition. In one exemplary method, the inhibition of NKCCl and its affect on seizures in rat pups was studied. Two days after implantation of recording electrodes, six P9-P10 rats received subcutaneous injection of KA (2 mg/kg) and six P9-10 control rats received subcutaneous 0.9% sodium chloride saline injections. 10-20 minutes after KA injection regular pattern of behavioral signs started, involving scratching-like movements of the hindpaws, loss of balance and turning on the side. Recurrent interictal and ictal electroencephalographic patterns occurred 20-80 minutes (61.2±10.4 min; mean±se) after KA injection in all rats from this experimental group (FIG. 4B). […] Interictal spikes usually occurred synchronously in the left and right hemispheres. Frequency of the interictal spikes was 1.43±0.06 Hz (n=23 seizures in 6 rats). Before transition to ictal patterns, interictal spikes were usually followed by fast ripple (100-500 Hz) and gamma-frequency oscillations (20-50 Hz). Tonic-clonic seizures were the most common type of seizures induced by KA in P9-10 rats. Ictal-tonic phase lasted 12.6±1.4 s (16 seizures in 5 rats). Population spikes of 18.7±1.2 Hz were characteristic of the tonic phase of KA-induced seizures (FIG. 4C). Tonic discharges were followed by clonic bursts (FIG. 4C). Large amplitude population spikes followed by 100-200 Hz ripples and 200-1200 ms gamma frequency after discharges characterized the clonic bursts. The mean duration of the clonic phase was 36.4±5 s (25 seizures in 6 rats). The ictal patterns were followed by postictal depression (FIG. 4 B-4C). During ictal EEG activity, motor activity consisted of scratching, jerky movements, turning on the side or on the back and frequent tail shaking. Five to ten recurrent seizures with an average interval 379±24.5 s were followed by periodic epileptiform discharges (PLEDs) (FIG. 4D).
In one exemplary experiment, a pharmaceutical composition of the present invention comprising bumetanide was compared to phenobarbital for effects on KA-induced rat seizures. Two days after implantation of recording electrodes, twenty-two P9-12 age-matched rats received subcutaneous injection with KA (2 mg/kg). […]

[2] = P9-12 rats, phenobarbital 25 mg/kg or bumetanide 0.1-0.2 mg/kg i.p.

Compound | effect of action potential trains on Cli (Na^+-K^+-ATPase) | experiments in which seizure frequency was significantly reduced [1] [%] | seizure power ([1]; bumetanide 10 μM or both, 120 min application, intact hippocampus of P4-6 rats) | animals with recurrent ictal-clonic activity / EEG clonic seizures (KA-induced rat seizures; P9-12 rats, drug i.p. 10 min after KA (phenobarbital 25 mg/kg; bumetanide 0.1-0.2 mg/kg), 6 rats per group) [%] | frequency of the ictal-tonic discharges (KA-induced rat seizures; P9-12 rats, phenobarbital 25 mg/kg i.p.) [Hz] | duration of ictal-clonic phase (KA-induced rat seizures; [2]) [s] | duration of ictal-tonic phase (KA-induced rat seizures; [2]) [s] | frequency of interictal spikes (KA-induced rat seizures; [2]) [Hz] | mean duration of single ictal episode (seizure including interictal and ictal phases) (KA-induced rat seizures; [2]) [s] | mean interval between seizures (KA-induced rat seizures; [2]) [s] | rats with ictal-tonic pattern / tonic-clonic seizures (KA-induced rat seizures; [2]) [%] | increase of power of EEG activity in the 20 minute window following seizure onset (KA-induced rat seizures; compared to pre-ictal baseline, phenobarbital 25 mg/kg or bumetanide 0.1-0.2 mg/kg i.p., saline control 444.7±136.3%) [%]
C[C@@H]1O[C@@H](O[C@H]2C[C@@H](O)[C@]3(CO)[C@H]4[C@H](O)C[C@]5(C)[C@@H]([C@@H]6COC(=O)C6)CC[C@]5(O)[C@@H]4CC[C@]3(O)C2)[C@H](O)[C@H](O)[C@H]1O [DHO, dihydroouabain] | no effect | – | – | – | – | – | – | – | – | – | – | –
CCC1(c2ccccc2)C(=O)NC(=O)NC1=O [phenobarbital] | – | 70 | no significant effect | 100 | 14±3 | 12 ± 1.1 | 5.2 ± 1.4 | 1.56 ± 0.08 | 27.4 ± 2.6 | 241.3 ± 45.8 | 33.3 | 248±40.8
